From ChEMBL document CHEMBL5257159, “Insights into targeting SARS-CoV-2: design, synthesis, in silico studies and antiviral evaluation of new dimethylxanthine derivatives” (RSC Med Chem, 2023)
Active and inactive are the calls of the source. No cut-off for these calls is given here.

Legend:
KM12 = experiment: Cytotoxicity against human KM12 cells assessed as inhibition of cell growth incubated for 48 hrs by SRB assay; type: functional, cell-based
[1] = target: T1, Replicase polyprotein 1ab (Severe acute respiratory syndrome coronavirus 2, UniProt P0DTD1); experiment: Inhibition of MBP tagged recombinant SARS-CoV-2 main protease using DABCYL-KTSAVLeu(13C6,15N)-Q as substrate incubated for 2 to 3 hrs by mass spectrometric analysis
COLO 205 = experiment: Cytotoxicity against human COLO 205 cells assessed as inhibition of cell growth incubated for 48 hrs by SRB assay; type: functional, cell-based
LOX IMVI = experiment: Cytotoxicity against human LOX IMVI cells assessed as inhibition of cell growth incubated for 48 hrs by SRB assay; type: functional, cell-based
[2] = target: T1, Replicase polyprotein 1ab; experiment: Inhibition of SARS-CoV-2 RdRP using ATP substrate preincubated with compound for 30 mins followed by substrate addition and measured after 30 mins by Alphascreen microplate reader analysis
SK-MEL-2 = experiment: Cytotoxicity against human SK-MEL-2 cells assessed as inhibition of cell growth incubated for 48 hrs by SRB assay; type: functional, cell-based
SARS-CoV-2 = experiment: Antiviral activity against SARS-CoV-2 NRC-03-nhCoV infected in african green monkey Vero E6 cells assessed as inhibition of virus-induced cytopathic effect measured after 72 hrs by crystal violet staining based assay; type: functional, organism-based; conditions: Severe acute respiratory syndrome coronavirus 2, NRC-03-nhCoV, Vero C1008, 72 h
BT-549 = experiment: Cytotoxicity against human BT-549 cells assessed as inhibition of cell growth incubated for 48 hrs by SRB assay; type: functional, cell-based
MDA-MB-468 = experiment: Cytotoxicity against human MDA-MB-468 cells assessed as inhibition of cell growth incubated for 48 hrs by SRB assay; type: functional, cell-based
SW-620 = experiment: Cytotoxicity against human SW620 cells assessed as inhibition of cell growth incubated for 48 hrs by SRB assay; type: functional, cell-based
K562 = experiment: Cytotoxicity against human K562 cells assessed as inhibition of cell growth incubated for 48 hrs by SRB assay; type: functional, cell-based
HT-29 = experiment: Cytotoxicity against human HT-29 cells assessed as inhibition of cell growth incubated for 48 hrs by SRB assay; type: functional, cell-based
OVCAR-4 = experiment: Cytotoxicity against human OVCAR-4 cells assessed as inhibition of cell growth incubated for 48 hrs by SRB assay; type: functional, cell-based
OVCAR-5 = experiment: Cytotoxicity against human OVCAR-5 cells assessed as inhibition of cell growth incubated for 48 hrs by SRB assay; type: functional, cell-based
EKVX = experiment: Cytotoxicity against human EKVX cells assessed as inhibition of cell growth incubated for 48 hrs by SRB assay; type: functional, cell-based
NCI-H522 = experiment: Cytotoxicity against human NCI-H522 cells assessed as inhibition of cell growth incubated for 48 hrs by SRB assay; type: functional, cell-based
HCT-116 = experiment: Cytotoxicity against human HCT-116 cells assessed as inhibition of cell growth incubated for 48 hrs by SRB assay; type: functional, cell-based
TK-10 = experiment: Cytotoxicity against human TK-10 cells assessed as inhibition of cell growth incubated for 48 hrs by SRB assay; type: functional, cell-based
NCI/ADR-RES = experiment: Cytotoxicity against human NCI/ADR-RES cells assessed as inhibition of cell growth incubated for 48 hrs by SRB assay; type: functional, cell-based
ACHN = experiment: Cytotoxicity against human ACHN cells assessed as inhibition of cell growth incubated for 48 hrs by SRB assay; type: functional, cell-based
SK-OV-3 = experiment: Cytotoxicity against human SK-OV-3 cells assessed as inhibition of cell growth incubated for 48 hrs by SRB assay; type: functional, cell-based
SN12C = experiment: Cytotoxicity against human SN12C cells assessed as inhibition of cell growth incubated for 48 hrs by SRB assay; type: functional, cell-based
NCI-H226 = experiment: Cytotoxicity against human NCI-H226 cells assessed as inhibition of cell growth incubated for 48 hrs by SRB assay; type: functional, cell-based
DU-145 = experiment: Cytotoxicity against human DU-145 cells assessed as inhibition of cell growth incubated for 48 hrs by SRB assay; type: functional, cell-based
NCI-H460 = experiment: Cytotoxicity against human NCI-H460 cells assessed as inhibition of cell growth incubated for 48 hrs by SRB assay; type: functional, cell-based
M14 = experiment: Cytotoxicity against human M14 cells assessed as inhibition of cell growth incubated for 48 hrs by SRB assay; type: functional, cell-based
UACC-257 = experiment: Cytotoxicity against human UACC-257 cells assessed as inhibition of cell growth incubated for 48 hrs by SRB assay; type: functional, cell-based
SK-MEL-28 = experiment: Cytotoxicity against human SK-MEL-28 cells assessed as inhibition of cell growth incubated for 48 hrs by SRB assay; type: functional, cell-based
A498 = experiment: Cytotoxicity against human A498 cells assessed as inhibition of cell growth incubated for 48 hrs by SRB assay; type: functional, cell-based
U-251 = experiment: Cytotoxicity against human U-251 cells assessed as inhibition of cell growth incubated for 48 hrs by SRB assay; type: functional, cell-based
CAKI-1 = experiment: Cytotoxicity against human CAKI-1 cells assessed as inhibition of cell growth incubated for 48 hrs by SRB assay; type: functional, cell-based
A549 = experiment: Cytotoxicity against human A549 cells assessed as inhibition of cell growth incubated for 48 hrs by SRB assay; type: functional, cell-based
SR = experiment: Cytotoxicity against human SR cells assessed as inhibition of cell growth incubated for 48 hrs by SRB assay; type: functional, cell-based
MOLT-4 = experiment: Cytotoxicity against human MOLT-4 cells assessed as inhibition of cell growth incubated for 48 hrs by SRB assay; type: functional, cell-based
SK-MEL-5 = experiment: Cytotoxicity against human SK-MEL-5 cells assessed as inhibition of cell growth incubated for 48 hrs by SRB assay; type: functional, cell-based
Malme-3M = experiment: Cytotoxicity against human Malme-3M cells assessed as inhibition of cell growth incubated for 48 hrs by SRB assay; type: functional, cell-based
SF-268 = experiment: Cytotoxicity against human SF-268 cells assessed as inhibition of cell growth incubated for 48 hrs by SRB assay; type: functional, cell-based
HCT-15 = experiment: Cytotoxicity against human HCT-15 cells assessed as inhibition of cell growth incubated for 48 hrs by SRB assay; type: functional, cell-based
SF-295 = experiment: Cytotoxicity against human SF-295 cells assessed as inhibition of cell growth incubated for 48 hrs by SRB assay; type: functional, cell-based
MDA-MB-435 = experiment: Cytotoxicity against human MDA-MB-435 cells assessed as inhibition of cell growth incubated for 48 hrs by SRB assay; type: functional, cell-based
CCRF-CEM = experiment: Cytotoxicity against human CCRF-CEM cells assessed as inhibition of cell growth incubated for 48 hrs by SRB assay; type: functional, cell-based
NCI-H322M = experiment: Cytotoxicity against human NCI-H322M cells assessed as inhibition of cell growth incubated for 48 hrs by SRB assay; type: functional, cell-based
SNB-19 = experiment: Cytotoxicity against human SNB-19 cells assessed as inhibition of cell growth incubated for 48 hrs by SRB assay; type: functional, cell-based
OVCAR-3 = experiment: Cytotoxicity against human OVCAR-3 cells assessed as inhibition of cell growth incubated for 48 hrs by SRB assay; type: functional, cell-based
MDA-MB-231 = experiment: Cytotoxicity against human MDA-MB-231 cells assessed as inhibition of cell growth incubated for 48 hrs by SRB assay; type: functional, cell-based
HOP-92 = experiment: Cytotoxicity against human HOP-92 cells assessed as inhibition of cell growth incubated for 48 hrs by SRB assay; type: functional, cell-based
RPMI-8226 = experiment: Cytotoxicity against human […] cells assessed as inhibition of cell growth incubated for 48 hrs by SRB assay; type: functional, cell-based
RXF 393 = experiment: Cytotoxicity against human RXF 393 cells assessed as inhibition of cell growth incubated for 48 hrs by SRB assay; type: functional, cell-based
PC-3 = experiment: Cytotoxicity against human PC-3 cells assessed as inhibition of cell growth incubated for 48 hrs by SRB assay; type: functional, cell-based
[3] = Selectivity index, ratio of CC50 for african green monkey Vero E6 cells to IC50 for antiviral activity against SARS-CoV-2 NRC-03-nhCoV infected in african green monkey Vero E6 cells; type: toxicity, Vero C1008; conditions: read-out: Ratio CC50/IC50
Hs578Bst = experiment: Cytotoxicity against human Hs578Bst cells assessed as inhibition of cell growth incubated for 48 hrs by SRB assay; type: functional, cell-based
786-0 = experiment: Cytotoxicity against human 786-0 cells assessed as inhibition of cell growth incubated for 48 hrs by SRB assay; type: functional, cell-based
UO-31 = experiment: Growth inhibition of human UO-31 cells incubated for 48 hrs by SRB assay relative to control; type: functional
SNB-75 = experiment: Cytotoxicity against human SNB-75 cells assessed as inhibition of cell growth incubated for 48 hrs by SRB assay; type: functional, cell-based
HOP-62 = experiment: Cytotoxicity against human HOP-62 cells assessed as inhibition of cell growth incubated for 48 hrs by SRB assay; type: functional, cell-based
T47D = experiment: Cytotoxicity against human T47D cells assessed as inhibition of cell growth incubated for 48 hrs by SRB assay; type: functional, cell-based
HL-60(TB) = experiment: Cytotoxicity against human HL-60(TB) cells assessed as inhibition of cell growth incubated for 48 hrs by SRB assay; type: functional, cell-based
[4] = Cytotoxicity against African green monkey Vero E6 cells measured after 72 hrs by MTT assay; type: toxicity, cell-based, Vero C1008; conditions: chlorocebus sabaeus
IGROV-1 = experiment: Cytotoxicity against human IGROV-1 cells assessed as inhibition of cell growth incubated for 48 hrs by SRB assay; type: functional, cell-based
NCI-H23 = experiment: Cytotoxicity against human NCI-H23 cells assessed as inhibition of cell growth incubated for 48 hrs by SRB assay; type: functional, cell-based
SF-539 = experiment: Cytotoxicity against human SF-539 cells assessed as inhibition of cell growth incubated for 48 hrs by SRB assay; type: functional, cell-based
HCC 2998 = experiment: Cytotoxicity against human HCC 2998 cells assessed as inhibition of cell growth incubated for 48 hrs by SRB assay; type: functional, cell-based
MCF7 = experiment: Cytotoxicity against human MCF7 cells assessed as inhibition of cell growth incubated for 48 hrs by SRB assay; type: functional, cell-based
OVCAR-8 = experiment: Cytotoxicity against human OVCAR-8 cells assessed as inhibition of cell growth incubated for 48 hrs by SRB assay; type: functional, cell-based

In the case of `Cn1cnc2c1c(=O)n(CC(=O)Nc1ccc(S(=O)(=O)Nc3ncccn3)cc1)c(=O)n2C`, the Activity (KM12) is reported as “inactive”, the IC50 [1] is reported as 8.06 µM and the Activity (COLO 205) is reported as “inactive”. The Activity (LOX IMVI) was “inactive”, the IC50 [2] was 3.22 µM and the Activity (SK-MEL-2) was “inactive”. The IC50 (SARS-CoV-2) was 8.86 µM, the Activity (BT-549) was “inactive” and the Activity (MDA-MB-468) was “inactive”. The Activity (SW-620) was “inactive”, the Activity (K562) was “inactive” and the Activity (HT-29) was “inactive”. For the same compound, the Activity (OVCAR-4) was “inactive”, the Activity (OVCAR-5) was “inactive” and the Activity (EKVX) was “inactive”. The Activity (NCI-H522) was “inactive”, the Activity (HCT-116) was “inactive” and the Activity (TK-10) was “inactive”. For the same compound, the Activity (NCI/ADR-RES) was “inactive”, the Activity (ACHN) was “inactive” and the Activity (SK-OV-3) was “inactive”. The Activity (SN12C) was “inactive”, the Activity (NCI-H226) was “inactive” and the Activity (DU-145) was “inactive”. The Activity (NCI-H460) was “inactive”, the Activity (M14) was “inactive” and the Activity (UACC-257) was “inactive”. The Activity (SK-MEL-28) was “inactive”, the Activity (A498) was “inactive” and the Activity (U-251) was “inactive”. For the same compound, the Activity (CAKI-1) was “inactive”, the Activity (A549) was “inactive” and the Activity (SR) was “inactive”. For the same compound, the Activity (MOLT-4) was “inactive”, the Activity (SK-MEL-5) was “inactive” and the Activity (Malme-3M) was “inactive”. For the same compound, the Activity (SF-268) was “inactive”, the Activity (HCT-15) was “inactive” and the Activity (SF-295) was “inactive”. The Activity (MDA-MB-435) was “inactive”, the Activity (CCRF-CEM) was “inactive” and the Activity (NCI-H322M) was “inactive”. For the same compound, the Activity (SNB-19) was “inactive”, the Activity (OVCAR-3) was “inactive” and the Activity (MDA-MB-231) was “inactive”. For the same compound, the Activity (HOP-92) was “inactive”, the Activity (RPMI-8226) was “inactive” and the Activity (RXF 393) was “inactive”. The Activity (PC-3) was “inactive”, the selectivity ratio [3] was 129 and the Activity (Hs578Bst) was “inactive”. For the same compound, the Activity (786-0) was “inactive”, the “growth inhibition (GI)” value (UO-31) was 17.55% and the Activity (SNB-75) was “inactive”. The Activity (HOP-62) was “inactive”, the Activity (T47D) was “inactive” and the Activity (HL-60(TB)) was “inactive”. For the same compound, the CC50 at 72 h [4] was 1140 µM, the Activity (IGROV-1) was “inactive” and the Activity (NCI-H23) was “inactive”. The Activity (SF-539) was “inactive”, the Activity (HCC 2998) was “inactive” and the Activity (MCF7) was “inactive”. For the same compound, the Activity (OVCAR-8) was “inactive”.
